Experimental data reported in patent EP0544958A1, “Cephalosporin compounds and processes for preparing the same” (TANABE SEIYAKU CO., LTD., priority 1991, dated 1993).
Structures can show the parent of a compound that is named as a salt.

Columns and labels:
[1] = tested on: Staphylococcus aureus 209P JC-1; assay: antimicrobial activity compared with ceftazidime; type: cell-based; settings: relative to ceftazidime
[2] = tested on: Citrobacter freundii GN346; assay: antimicrobial activity against β-lactamase-producing bacteria compared with ceftazidime; type: cell-based; settings: relative to ceftazidime
[3] = tested on: Staphylococcus epidermidis Kawamura; assay: antimicrobial activity compared with ceftazidime; type: cell-based; settings: relative to ceftazidime
[4] = tested on: clinical isolates of MRSA; assay: antibacterial activity (90 % inhibitory concentration) against clinical isolates; type: cell-based, methicillin resistant Staphylococcus aureus (MRSA); settings: relative to ceftazidime
mice = assay: acute toxicity by intravenous administration; type: in vivo; settings: dose of 1 g/kg, five mice, within five days after administration
Text: Moreover, the desired compounds [I] or pharmaceutically acceptable salts thereof have high absorbability in the living tissue, and the treatment effects thereof last for a long time so that the compounds [I] of the present invention show an excellent defense effect in infectious diseases caused by various microorganisms including Staphylococcus aureus and Pseudomonas aeruginosa. In addition, the desired compounds [I] of the present invention and pharmaceutically acceptable salts thereof have low toxicity and show high safety as medicaments.

| Structure (SMILES) | antimicrobial activity, times stronger as compared with ceftazidime [1] | antimicrobial activity, times stronger than ceftazidime [2] | antimicrobial activity, times stronger as compared with ceftazidime [3] | antibacterial activity (90 % inhibitory concentration), times superior to that of ceftazidime [4] | acute toxicity (mice that died) (mice) |
| --- | --- | --- | --- | --- | --- |
| Nc1nc(/C(=N/OC(C(=O)O)c2ccc(O)c3[nH]c(=O)ccc23)C(=O)N[C@@H]2C(=O)N3C(C(=O)[O-])=C(C[n+]4cccc5ccccc54)CS[C@H]23)cs1 (stereo partly drawn) [Example 3, 7β-{(Z)-2-(2-aminothiazol-4-yl)-2-[(8-hydroxy-2-oxo-1H-quinolin-5-yl)(caboxy)methyloxyimino]acetamido}-3-(1-quinoliniomethyl)-3-cephem-4-carboxylic acid sodium salt] | more than 32 times | more than 4 times |  |  |  |
| Nc1nc(/C(=N/OC(C(=O)O)c2ccc(O)c3[nH]c(=O)ccc23)C(=O)N[C@@H]2C(=O)N3C(C(=O)[O-])=C(C[n+]4ccccc4)CS[C@H]23)cs1 (stereo partly drawn) [Example 4, 7β-{(Z)-2-(2-aminothiazol-4-yl)-2-[(8-hydroxy-2-oxo-1H-quinolin-5-yl)(carboxy)methyloxyimino]acetamido}-3-(1-pyridiniomethyl)-3-cephem-4-carboxylic acid sodium salt] |  | more than 4 times | more than 16 times |  |  |
| Cc1c(N)ccc[n+]1CC1=C(C(=O)[O-])N2C(=O)[C@@H](NC(=O)/C(=N\OC(C(=O)O)c3ccc(O)c4[nH]c(=O)ccc34)c3csc(N)n3)[C@H]2SC1 (stereo partly drawn) [Example 27, 7β-{(Z)-2-(2-aminothiazol-4-yl)-2-[(8-hydroxy-2-oxo-1H-quinolin-5-yl)(carboxy)methyloxyimino]acetamido}-3-(3 amino-2-methyl-1-pyridiniomethyl)-3-cephem-4-carboxylic acid sodium salt] |  |  | more than 16 times | about 16 times | none of the five mice |
